The record followed here is US20190218304A1, “POTENTIATING THE EFFECT OF ATP RELEASE” (INNATE PHARMA, priority 2017, published 2019).

In the assay the test system is MCA205 mouse tumor cells (sarcoma). Nature of the assay: In vivo combination treatment, MCA205 tumors in human CD39 KI mice.
The mark [1] stands for this setting: first experimental series: oxaliplatin at day 5, murine I-394 twice a week from day 4.
Setting [2] is: second experimental series, repeated oxaliplatin.

Procedure: 1×10^6 MCA205 mouse tumor cells (sarcoma) were subcutaneously engrafted in the right flank of mice genetically modified to express human CD39 (CD39KI mice). […] Tumors were measured twice a week with a caliper (L: length and w: width) and tumor volume was calculated with the formula (L×w2)/2. Mice were sacrificed when tumor volume was above 1800 mm^3 or when tumors were highly necrosed. The human CD39 KI mice were engrafted with MCA205 tumor cells at day 0.
In a first experimental series, mice were treated at day 5 post tumor cell engraftment with either control (1 group) PBS, or oxaliplatin chemotherapy (2 groups). In parallel, one group of mice treated with oxaliplatin was injected twice a week with anti-CD39 antibody, with the anti-CD39 antibody treatment starting just one day before oxaliplatin treatment (at day 4).

With `O=C1[O][Pt]2([NH][C@@H]3CCCC[C@H]3[NH]2)[O]C1=O` [oxaliplatin], under setting [1], the “Complete Response (CR), number of mice” value is “no CR” and the Survival median was 25 days. Moreover, the tumor free mice (second experimental series, 40 days post tumor engraftment) is listed as 2/12. Under setting [2], the “CR (complete responses), number of mice” value was determined as 2 and the “partial responses (PR), number of mice” value amounted to 3. The “effect on tumor growth / tumor volume and mice survival” value (second experimental series: oxaliplatin injected twice, one week apart, one day after I-394) was “some regression of tumor volume, and increase in mice survival”.
